Assays:
Plasmodium falciparum = assay: In vitro anti-protozoal activity against Plasmodium falciparum Ghana; assay type: functional, organism-based
Leishmania infantum = assay: In vitro anti-protozoal parasite activity against Leishmania infantum L1 strain; assay type: functional, organism-based
Trypanosoma brucei = assay: In vitro anti-protozoal parasite activity against Trypanosoma brucei TB-1; assay type: functional, organism-based
Trypanosoma cruzi = assay: In vitro anti-protozoal parasite activity against Trypanosoma cruzi TC-1; assay type: functional, organism-based
MRC5 = assay: In vitro cytotoxicity against cell line MRC-5; assay type: functional, cell-based; conditions: Homo sapiens

Compound	IC50 (Plasmodium falciparum)	IC50 (Leishmania infantum)	IC50 (Trypanosoma brucei)	IC50 (Trypanosoma cruzi)	IC50 (MRC5)
CO[C@H]1O[C@@H]2O[C@@]3(C)CC[C@H]4[C@H](C)CC[C@@H]([C@H]1C)[C@@]24OO3 [ARTEMETHER]	0.025 µM				
O=C(O)CCC(=O)OC12CCCCC1C1CCCCC1(O)OO2 (stereo unspecified)	1 µM	> 32 µM	4 µM	13 µM	13 µM
COC12CCCCC1C1CCCCC1(O)OO2 (stereo unspecified)	5 µM	> 32 µM	16 µM	8 µM	8 µM
O=C(O)CCCC(=O)OC12CCCCC1C1CCCCC1(O)OO2 (stereo unspecified)	19 µM	> 32 µM	16 µM	15 µM	> 32 µM
CC1CCCC2C3CCCC(C)C3(O)OOC12O (stereo unspecified)	> 32 µM	> 32 µM		> 32 µM	> 32 µM
O=C(O)CCCCC(=O)OC12CCCCC1C1CCCCC1(O)OO2 (stereo unspecified)	> 32 µM	> 32 µM	17 µM	19 µM	> 32 µM
OC12CCCCC1C1CCCCC1(O)OO2 (stereo unspecified)	0.1 µM	> 32 µM	13 µM	24 µM	10 µM
Cc1ccc(C(=O)Nc2ccc(S(=O)(=O)O)c3cc(S(=O)(=O)O)cc(S(=O)(=O)O)c23)cc1NC(=O)c1cccc(NC(=O)Nc2cccc(C(=O)Nc3cc(C(=O)Nc4ccc(S(=O)(=O)O)c5cc(S(=O)(=O)O)cc(S(=O)(=O)O)c45)ccc3C)c2)c1 [SURAMIN HEXASODIUM]			0.043 µM		
O=C(O)CC(=O)OC12CCCCC1C1CCCCC1(O)OO2 (stereo unspecified)	6 µM	> 32 µM	10 µM	> 32 µM	> 32 µM
